# Measurements from patent US6716858B1, “Methods for inhibiting diabetic complications” (Kansas University Medical Center, priority 1995, dated 2004).
# Key:
# [1] = tested on: post-Amadori AGE formation, RNase Amadori intermediate; assay: Interrupted (post-Amadori) ribose glycation assay, RNase; type: biochemical, bovine; details: RNase
# Protocol: (§1) ELISA detection of AGE products. The general method of Engvall (1981, Methods Enzymol. 70:419-439) was used to perform the ELISA. Typically, glycated protein samples were diluted to approximately 1.5 ug/ml in 0.1 M sodium carbonate buffer of pH 9.5 to 9.7. The protein was coated overnight at room temperature onto 96-well polystyrene plates by pippetting 200 ul of the protein solution in each well (0.3 ug/well). After coating, the protein was washed from the wells with a saline solution containing 0.05% Tween-20. The wells were then blocked with 200 ul of 1% casein in carbonate buffer for 2 h at 37° C. followed by washing. Rabbit anti-AGE antibodies were diluted at a titer of about 1:350 in incubation buffer, and incubated for 1 h at 37° C., followed by washing. In order to minimize background readings, antibodies R479 used to detect glycated RNase were raised against glycated BSA, and antibodies R618 used to detect glycated BSA and glycated Hb were raised against glycated RNase. An alkaline phosphatase-conjugated antibody to rabbit IgG was then added as the secondary antibody at a titer of 1:2000 or 1:2500 (depending on lot) and incubated for 1 h at 37° C., followed by washing. The p-nitrophenylphosphate substrate solution was then added (200 ul/well) to the plates, with the absorbance of the released p-nitrophenolate being monitored at 410 nm with a Dynatech MR 4000 microplate reader.
# Glycation Modifications Modification with ribose or glucose was generally done at 37° C. in 0.4 M phosphate buffer of pH 7.5 containing 0.02% sodium azide. The high buffer concentration was always used with 0.5 M ribose modifications. The solutions were kept in capped tubes and opened only to remove timed aliquots that were immediately frozen for later carrying out the various analyses. “Interrupted glycation” experiments were carried out by first incubating protein with the ribose at 37° C. for 8 or 24 h, followed by immediate and extensive dialysis against frequent cold buffer changes at 4° C. The samples were then reincubated by quickly warming to 37° C. in the absence of external ribose. Aliquots were taken and frozen at various intervals for later analysis. Due to the low molecular weight of RNase, protein concentrations were remeasured after dialysis even when low molecular weight cut-off dialysis tubing was used. An alternative procedure was also devised (see below) in which interruption was achieved by simple 100-fold dilution from reaction mixtures containing 0.5 M ribose. Protein concentrations were estimated from UV spectra. The difference in molar extinction between the peak (278 nm) and trough (250 nm) was used for RNase concentration determinations in order to compensate for the general increase in UV absorbance that accompanies glycation. Time-dependent UV-difference spectral studies were carried out to characterize the glycation contributions of the UV spectrum. […]
# Glycation was first carried out by incubating protein (10 mg/ml) with 0.5 M ribose at 37° C. in 0.4 M phosphate buffer at pH 7.5 containing 0.2% sodium azide for 24 h in the absence of inhibitors. Glycation was then interrupted to remove excess and reversibly bound (Schiff base) sugar by extensive dialysis against frequent cold buffer changes at 4° C.
# [2] = tested on: AGE formation during uninterrupted glycation of bovine serum albumin (BSA) by ribose; assay: Uninterrupted ribose glycation assay, BSA; type: biochemical; details: 0.05 M ribose, 6 weeks, inhibitors 0.5-50 mM
# Protocol: as §1
# (§2) Uninterrupted ribose glycation assays Bovine serum albumin, ribonuclease A, and human hemoglobin were incubated with ribose at 37° C. in 0.4 M sodium phosphate buffer of pH 7.5 containing 0.02% sodium azide. The protein (10 mg/ml or 1 mg/ml), 0.05 M ribose, and prospective inhibitors (at 0.5, 3, 15 and 50 mM) were introduced into the incubation mixture simultaneously. Solutions were kept in the dark in capped tubes. Aliquots were taken and immediately frozen until analyzed by ELISA at the conclusion of the reaction. The incubations were for 3 weeks (Hb) or 6 weeks (RNase, BSA). Glycation reactions were monitored for constant pH throughout the duration of the experiments.
# ribose-treated rats = assay: Ribose rat model, intervention by compounds (Phase III); type: in vivo; details: for Albumin effusion rate (AER): absence of ribose, pyridoxamine and TPP 250 mg/kg, aminoguanidine 25 mg/kg
# Protocol: Sixty rats were randomized into 9 different groups, including those exposed to 1 M ribose for 8 days in the presence and absence of aminoguanidine, pyridoxamine, and thiamine pyrophosphate as follows:
# (ii) high dose (250 mg/kg body weight) of pyridoxamine (“compound-P”);
# (iii) high dose (250 mg/kg body weight of thiamine pyrophosphate (“compound-T” or “TPP”); and
# (iv) low dose (25 mg/kg body weight) of aminoguanidine (“AG”).
# (i) only 1 M ribose-saline (2×9 cc daily IP for 8 days);
# (ii) ribose plus low dose (“LP”) of pyridoxamine (25 mg/kg body weight injected as 0.5 ml with 9 cc ribose);
# (iii) ribose plus high dose (“HP”) of pyridoxamine (250 mg/kg body weight injected as 0.5 ml with 9 cc ribose);
# (iv) ribose plus high dose (“HT”) of thiamine pyrophosphate (250 mg/kg body weight injected as 0.5 ml with 9 cc ribose); and
# (v) ribose plus low dose of amino guanidine (25 mg/kg body weight injected as 0.5 ml with 9 cc ribose).
# Unlike Phase II, no ribose was administered in drinking water. Intervention compounds were pre-administered for one day prior to introducing them with ribose.
# [3] = tested on: AGE formation in human methemoglobin (Hb); assay: Uninterrupted glycation of human methemoglobin with glucose, anti-AGE ELISA; type: biochemical; details: Hb 1 mg/ml, 1.0 M glucose, 3 weeks; inhibitors 0.5, 3, 15 and 50 mM
# Protocol: as §2, with “Glycation with Glucose” for “ribose glycation assays”, “glucose” for “ribose”, “protein, glucose (at 1.0 M),” for “protein (10 mg/ml or 1 mg/ml), 0.05 M ribose,”, “BSA).” for “BSA). Glycation reactions were monitored for constant pH throughout the duration of the experiments.”
# as §1
# (§3) Aliquots were assayed by ELISA using R618 anti-AGE antibodies.
# as §3
# [4] = 24 h in 0.5 M ribose, then free ribose removed, 37° C.
# [5] = co-administered with 1 M ribose, 250 mg/kg
# [6] = co-administered with 1 M ribose, low dose 25 mg/kg
# [7] = compound alone, 250 mg/kg, no ribose
SMILES,"inhibition of post-Amadori AGE formation [1, 4]",inhibition of overall kinetics of AGE formation from ribose [2],Albumin effusion rate (AER) (ribose-treated rats),creatinine clearance (ribose-treated rats; [5]),Albumin effusion rate (ribose-treated rats; [6]),creatinine clearance (ribose-treated rats; [6]),creatinine clearance (ribose-treated rats; [7]),inhibition of antigenic AGE formation (ELISA) [3],inhibition of post-Amadori AGE formation ([1]; 50 mM inhibitor)
Cc1ncc(CO)c(CN)c1O [pyridoxamine],nearly complete inhibition of AGE formation with RNase at 15 mM and 50 mM,"exhibited some inhibition at lower concentrations, and at the highest concentration tested appeared to inhibit the final levels of AGE formed more effectively than any of the other B6 derivatives",elevated,only partial protection against the ribose-induced decrease in creatinine clearance,restored to normal,normalized,"but not pyridoxamine, appeared to decrease creatinine clearance",the most effective inhibitors in each of their respective families,–
Cc1ncc(C[n+]2csc(CCO[P@](=O)(O)OP(=O)(O)O)c2C)c(N)n1 [thiamine pyrophosphate],inhibited AGE formation more effectively than the other B1 derivatives,"inhibited the final levels of AGEs formed, without greatly affecting the rate of AGE formation",elevated,only partial protection against the ribose-induced decrease in creatinine clearance,–,–,diminished it,the most effective inhibitors in each of their respective families,–
"N=C(N)NN [aminoguanidine, reference compound]",modest effects on blocking the formation of antigenic AGEs in RNase,appearing to slow the rate of AGE formation without significantly affecting the final levels of AGE formed,elevated,–,restored to normal,normalized,–,"only inhibited the rate of AGE formation, and not the final levels of AGE formed",less than 15%
